The target in one data set is T1, Tankyrase 1/2 (Homo sapiens, UniProt Q9H2K2+O95271).
T1 sequence (Q9H2K2 whole entry): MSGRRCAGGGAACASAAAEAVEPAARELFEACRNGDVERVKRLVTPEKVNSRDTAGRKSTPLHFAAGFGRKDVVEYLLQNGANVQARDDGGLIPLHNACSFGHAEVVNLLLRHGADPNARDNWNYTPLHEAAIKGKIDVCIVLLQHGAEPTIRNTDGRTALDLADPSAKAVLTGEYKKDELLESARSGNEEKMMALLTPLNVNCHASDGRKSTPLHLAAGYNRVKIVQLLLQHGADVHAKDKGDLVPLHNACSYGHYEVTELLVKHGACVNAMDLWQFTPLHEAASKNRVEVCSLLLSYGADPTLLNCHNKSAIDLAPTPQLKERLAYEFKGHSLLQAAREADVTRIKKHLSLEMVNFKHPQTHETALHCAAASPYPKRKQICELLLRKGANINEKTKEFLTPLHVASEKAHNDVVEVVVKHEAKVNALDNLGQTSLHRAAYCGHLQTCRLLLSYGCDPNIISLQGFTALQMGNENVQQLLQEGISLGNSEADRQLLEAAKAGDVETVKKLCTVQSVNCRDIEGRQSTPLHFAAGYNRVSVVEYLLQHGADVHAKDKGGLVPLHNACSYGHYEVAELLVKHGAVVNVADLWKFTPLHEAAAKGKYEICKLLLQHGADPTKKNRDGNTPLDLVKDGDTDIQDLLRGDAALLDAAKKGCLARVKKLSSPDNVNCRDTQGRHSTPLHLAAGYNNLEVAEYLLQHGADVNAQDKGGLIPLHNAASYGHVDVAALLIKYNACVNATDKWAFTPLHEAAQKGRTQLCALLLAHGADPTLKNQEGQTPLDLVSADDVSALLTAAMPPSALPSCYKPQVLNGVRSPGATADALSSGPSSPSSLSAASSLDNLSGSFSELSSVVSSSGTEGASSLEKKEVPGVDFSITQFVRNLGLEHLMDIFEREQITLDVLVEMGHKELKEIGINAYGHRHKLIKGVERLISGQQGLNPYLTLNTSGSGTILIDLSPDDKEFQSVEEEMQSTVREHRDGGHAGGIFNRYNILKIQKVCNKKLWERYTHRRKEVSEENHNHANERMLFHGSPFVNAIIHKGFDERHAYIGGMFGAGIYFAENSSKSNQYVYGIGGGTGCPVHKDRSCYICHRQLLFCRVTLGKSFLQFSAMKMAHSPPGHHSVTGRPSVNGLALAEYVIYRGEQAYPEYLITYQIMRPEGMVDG
T1 sequence (O95271 whole entry): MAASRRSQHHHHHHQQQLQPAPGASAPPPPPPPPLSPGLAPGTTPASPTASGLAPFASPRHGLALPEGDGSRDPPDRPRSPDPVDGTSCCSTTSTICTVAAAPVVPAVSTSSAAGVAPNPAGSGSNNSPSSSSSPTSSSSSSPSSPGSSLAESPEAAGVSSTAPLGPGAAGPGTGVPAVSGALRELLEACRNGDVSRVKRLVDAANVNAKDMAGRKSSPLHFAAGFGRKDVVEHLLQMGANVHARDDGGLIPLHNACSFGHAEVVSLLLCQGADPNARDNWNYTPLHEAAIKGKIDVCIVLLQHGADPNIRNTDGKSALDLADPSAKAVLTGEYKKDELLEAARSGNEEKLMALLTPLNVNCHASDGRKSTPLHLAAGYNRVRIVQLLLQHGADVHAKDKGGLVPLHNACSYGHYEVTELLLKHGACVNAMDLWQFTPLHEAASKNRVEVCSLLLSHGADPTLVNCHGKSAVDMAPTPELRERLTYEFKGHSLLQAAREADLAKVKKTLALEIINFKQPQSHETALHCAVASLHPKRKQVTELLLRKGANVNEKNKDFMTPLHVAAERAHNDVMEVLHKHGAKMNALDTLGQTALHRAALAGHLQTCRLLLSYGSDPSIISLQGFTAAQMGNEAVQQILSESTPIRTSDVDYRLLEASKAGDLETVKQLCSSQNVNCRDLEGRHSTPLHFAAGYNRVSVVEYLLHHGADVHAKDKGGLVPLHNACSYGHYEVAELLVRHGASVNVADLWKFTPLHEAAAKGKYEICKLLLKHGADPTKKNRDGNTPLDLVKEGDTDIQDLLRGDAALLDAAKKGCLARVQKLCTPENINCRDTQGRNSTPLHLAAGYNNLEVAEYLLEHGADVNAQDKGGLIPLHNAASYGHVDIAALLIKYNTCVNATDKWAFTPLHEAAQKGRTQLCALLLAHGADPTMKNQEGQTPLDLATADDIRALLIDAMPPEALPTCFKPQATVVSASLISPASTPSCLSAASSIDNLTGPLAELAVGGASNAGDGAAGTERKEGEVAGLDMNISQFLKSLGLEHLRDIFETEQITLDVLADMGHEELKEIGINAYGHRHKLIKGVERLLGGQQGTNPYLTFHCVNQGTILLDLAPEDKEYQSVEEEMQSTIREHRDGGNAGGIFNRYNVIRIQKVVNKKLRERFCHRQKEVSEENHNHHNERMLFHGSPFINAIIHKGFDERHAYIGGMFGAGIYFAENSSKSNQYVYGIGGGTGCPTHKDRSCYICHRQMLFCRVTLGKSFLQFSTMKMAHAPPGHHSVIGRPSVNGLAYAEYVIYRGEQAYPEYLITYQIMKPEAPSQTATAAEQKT

Data set [1] concerns RKO. Briefly: Antiproliferative activity against human RKO cells assessed reduction in cell viability at 0.3 uM measured after 5 days by MTT assay. The class given is functional, cell-based.
The nature of data set [2]: Permeability of the compound by PAMPA. Type of data set: ADME. To be noted: read-out: permeability.
A further data set in a line: physchem. The following applies: phosphate buffer, pH 7.4.
The nature of data set [3]: in vitro. To be noted: mouse, liver microsomes.
Description: Stability in mouse liver microsomes assessed as parent compound remaining at 1 uM measured after 30 mins in presence of NADPH by LC-MS/MS analysis
Data set [4] concerns the target T2, Poly [ADP-ribose] polymerase tankyrase-1 (Homo sapiens, UniProt O95271).
T2 sequence (O95271 whole entry): T1 sequence (O95271 whole entry)
Description: Inhibition of recombinant human N-terminal TEV cleavage site-fused/FLAG-poly his-tagged TNKS SAM-PARP domain (1024 to 1327 residues) expressed in Escherichia coli assessed as reduction in auto-PARylation preincubated for 10 mins followed by biotinylated-NAD+ addition and measured after 45 mins by ELISA

Data set [5] can be described thus: Half life in ICR mouse at 50 mg/kg, ip. The class given is ADME, organism-based. The following applies: in vivo.
Data set [6] in a line: Cmax in ICR mouse at 50 mg/kg, ip. Type of data set: ADME, organism-based. On the set-up: dose 50 mg/kg, route intraperitoneal. The following applies: in vivo.
The subject of data set [7] is RKO. Briefly: Antiproliferative activity against human RKO cells assessed inhibition of cell growth measured after 5 days by MTT assay. Type of data set: functional. To be noted: 120 h.
Data set [8] has as its system COLO 320DM. In words: cells. To be noted: Homo sapiens, 96 h.
Description: Antiproliferative activity against human COLO320DM cells assessed as inhibition of cell growth measured after 4 days by CellTiter-Glo assay
Data set [9] in a line: Protein binding in mouse serum assessed as unbound fraction at 1 uM measured after 24 hrs by LC-MS/MS analysis. The class given is ADME, cell-free.
For data set [10], the target named is T3, Poly [ADP-ribose] polymerase tankyrase-2 (Homo sapiens, UniProt Q9H2K2).
T3 sequence (Q9H2K2 whole entry): T1 sequence (Q9H2K2 whole entry)
Description: Inhibition of recombinant human N-terminal TEV cleavage site-fused/FLAG-poly his-tagged TNKS2 SAM-PARP domain (613 to 1166 residues) expressed in Escherichia coli assessed as reduction in auto-PARylation preincubated for 10 mins followed by biotinylated-NAD+ addition and measured after 45 mins by ELISA

Data set [11] is described as follows: AUC (infinity) in ICR mouse at 50 mg/kg, ip. Type of data set: ADME, organism-based. Details: dose 50 mg/kg, route intraperitoneal, time infinity. To be noted: in vivo.
Data set [12] has as its system COLO 320DM. In words: Antiproliferative activity against human COLO320DM cells assessed inhibition of cell growth measured after 5 days by MTT assay. The class given is functional. The following applies: 120 h.
Data set [13] deals with Poly [ADP-ribose] polymerase 1 (Homo sapiens, UniProt P09874).
Description: Inhibition of recombinant human PARP1 expressed in Escherichia coli assessed as reduction in auto-PARylation using histone as substrate measured after 45 mins in presence of biotinylated-NAD+ by ELISA
Data set [14] can be described thus: Protein binding in human serum assessed as unbound fraction at 1 uM measured after 24 hrs by LC-MS/MS analysis. Type of data set: ADME, cell-free.
A short description of data set [15]: in vitro. To be noted: human, liver microsomes.
Description: Stability in human liver microsomes assessed as parent compound remaining at 1 uM measured after 30 mins in presence of NADPH by LC-MS/MS analysis
In data set [16] the target is Tankyrase 1/2 (Homo sapiens) (UniProt Q9H2K2+O95271). In words: Inhibition of TNKS/TNKS2 in human COLO320DM cells assessed as upregulation of AXIN2 expression at 0.1 uM measured after 16 hrs by Western blot analysis relative to G007-LK. Type of data set: cell-based.

From ChEMBL document CHEMBL4387706, “Discovery of Novel Spiroindoline Derivatives as Selective Tankyrase Inhibitors” (J Med Chem, 2019) come the findings set out here.

Structures are written as SMILES. pIC50: −log10 of the molar value. Converted amounts (≈) assume the structure as drawn. The source made the active and inactive calls. No cut-off for these calls is given here.

Sequence of Poly [ADP-ribose] polymerase 1 (P09874 whole entry): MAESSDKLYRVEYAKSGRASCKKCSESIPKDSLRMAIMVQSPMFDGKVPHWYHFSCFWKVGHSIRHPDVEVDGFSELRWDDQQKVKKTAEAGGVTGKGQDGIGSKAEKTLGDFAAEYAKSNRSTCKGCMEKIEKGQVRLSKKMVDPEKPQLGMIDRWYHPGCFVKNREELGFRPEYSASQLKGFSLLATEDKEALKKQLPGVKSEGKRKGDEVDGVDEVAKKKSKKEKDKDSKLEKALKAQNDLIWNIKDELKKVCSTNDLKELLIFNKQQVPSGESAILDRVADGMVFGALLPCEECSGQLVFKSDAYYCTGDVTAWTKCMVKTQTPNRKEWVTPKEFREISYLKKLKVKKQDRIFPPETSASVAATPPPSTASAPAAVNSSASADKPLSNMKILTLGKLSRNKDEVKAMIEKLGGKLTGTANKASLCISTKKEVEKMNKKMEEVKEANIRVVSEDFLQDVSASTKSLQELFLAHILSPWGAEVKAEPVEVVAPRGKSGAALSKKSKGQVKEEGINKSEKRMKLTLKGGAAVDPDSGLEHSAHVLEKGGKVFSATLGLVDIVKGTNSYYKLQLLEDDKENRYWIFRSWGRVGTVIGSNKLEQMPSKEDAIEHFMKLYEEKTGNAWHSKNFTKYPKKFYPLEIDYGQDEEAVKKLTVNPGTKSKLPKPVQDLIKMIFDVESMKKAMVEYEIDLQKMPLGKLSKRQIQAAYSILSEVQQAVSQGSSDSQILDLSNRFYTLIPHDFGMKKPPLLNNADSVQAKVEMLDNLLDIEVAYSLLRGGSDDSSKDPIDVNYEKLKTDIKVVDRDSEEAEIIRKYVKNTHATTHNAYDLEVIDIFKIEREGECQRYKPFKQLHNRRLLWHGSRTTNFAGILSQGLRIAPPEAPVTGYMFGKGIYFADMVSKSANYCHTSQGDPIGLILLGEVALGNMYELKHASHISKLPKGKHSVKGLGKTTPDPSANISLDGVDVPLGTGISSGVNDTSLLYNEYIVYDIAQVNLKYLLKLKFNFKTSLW

At Tankyrase 1/2, `O=C1N(CCO)c2cccc(Cl)c2C12CCN(c1nc3c(c(=O)[nH]1)CCCC3)CC2` had a half-inhibitory concentration (IC50) of 13.9 nM. Further, the outcome in the data set with RKO [1] was Active. For the same compound, the Papp in data set [2] turned out to be 1.1 ×10⁻⁶ cm/s. For the same compound, the solubility at 1 h, 200 µM in the data set “physchem” was determined as 84.5 µg/mL (≈ 197 µM). In addition, the share remaining at 0.5 h, 1 µM was determined as 19.1% in “in vitro [3]” and 28.9% in the data set “in vitro [15]”. In addition, the pIC50 in [4] is 8.36; in [10] it was 8.17; in data set [13], less than 4.70. For the same compound, the half-life in data set [5] was 246 min. The compound also returned a Cmax in data set [6] of 5.35 µM. For the same compound, the GI50 in the data set on RKO [7] was more than 10 µM; in the data set with COLO 320DM [8] it was 1000 nM; in the data set with COLO 320DM [12] it was 250 nM. The free fraction (fraction unbound) at 24 h, 1 µM in data set [9] was 0.042; in data set [14] it was 0.018. Moreover, in data set [11], the total exposure AUC(0-inf) amounted to 157 µM·h. For the same compound, in data set [16], the fold change (FC) stood at 5.75.
Consider `O=C1N(CCO)c2cc(F)cc(F)c2C12CCN(c1nc3c(c(=O)[nH]1)CCCC3)CC2`, for which, on Tankyrase 1/2, the IC50 is recorded as 79.4 nM. For the same compound, in the data set with RKO [1], the result was Active. Moreover, the Papp in [2] is 7.9 ×10⁻⁶ cm/s. This compound also yielded a solubility at 1 h, 200 µM in the data set “physchem” of 76.9 µg/mL (≈ 179 µM). Besides, the values for the share remaining at 0.5 h, 1 µM in “in vitro [3]” and in “in vitro [15]” were 39.1% and 39.5%, respectively. Also, the negative-log IC50 (pIC50) was 8.00 in [4], 7.82 in data set [10] and less than 4.70 in data set [13]. In data set [5], this compound gave a half-life of 216 min. For the same compound, the concentration in data set [6] peaked (Cmax) at 48.1 µM. Besides, the results for the GI50 with RKO [7], with COLO 320DM [8] and with COLO 320DM [12] were more than 10 µM, 2400 nM and 470 nM, respectively. For the same compound, the fraction unbound at 24 h, 1 µM turned out to be 0.077 in data set [9] and 0.017 in [14]. The same compound registered an AUC(0-inf) in data set [11] of 106 µM·h. Further, the fold change (FC) in [16] came out at 3.93.
